Measured values taken from US20240158418A1 (C4 Therapeutics, Inc., priority 2021, published 2024).
Like-named read-outs stand apart in the source and are kept apart here.

How the values were obtained:
EGFR L858R-T790M = target: T1, EGFR L858R-T790M (Homo sapiens, UniProt P00533, L858R/T790M); test: EGFR degradation, Total EGFR (L858R-specific) HTRF, NCI-H1975; type: cell-based; conditions: NCI-H1975 cells, 6 hours, Total EGFR HTRF, read-out: H1975 EGFR DC50
T1 construct: NCI-H1975 (harboring EGFR heterozygous L858R-T790M mutations); host or cells: NCI-H1975
Method in brief: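 HTRF read-outs: pY1068 phospho-EGFR for IC50; total EGFR (pan-EGFR in A431, L858R-specific in mutant lines) for DC50. Compounds were titrated 11 points, half-log, from 10 μM in duplicate onto cells in 10% FBS RPMI, incubated 6 h at 37°C.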

EGFR L858R = EGFR L858R (Homo sapiens, UniProt P00533, L858R); test: EGFR degradation, Total EGFR (L858R-specific) HTRF, NCI-H3255; type: cell-based; set-up: NCI-H3255 (harboring EGFR heterozygous L858R mutation); host or cells: NCI-H3255; conditions: NCI-H3255 cells, 6 hours, Total EGFR HTRF, read-out: H3255 EGFR DC50
From the text: NCI-H1975 (harboring EGFR heterozygous L858R-T790M mutations) and NCI-H3255 (harboring EGFR heterozygous L858R mutation) were purchased from ATCC and NCI, respectively. NCI-H1975+CS (harboring EGFR heterozygous L858R-T790M-C797S mutations) was generated using CRISPR technology to introduce the additional C797S mutation by Horizon Discovery. A431 (harboring EGFR wildtype) was purchased from ATCC. RPMI 1640 no-phenol red medium and fetal bovine serum (FBS) were purchased from Gibco (Grand Island, NY, USA). Cell culture flasks and 384-well microplates were acquired from VWR (Radnor, PA, USA). Phosphorylated (pY1068) EGFR and Total EGFR (using L858R-specific detection antibody and pan-EGFR antibody for EGFR mutant cell lines and EGFR wild-type cell lines, respectively) HTRF assay kits were purchased from Cisbio (Bedford, MA, USA).
Degradation of EGFR protein containing L858R mutation or wild-type was determined based on quantification of FRET signal using a Total EGFR (L858R-specific or pan-EGFR detecting) HTRF assay kit. Phospho-EGFR (pEGFR) inhibition was determined based on quantification of FRET signal using a pY1068 EGFR HTRF assay kit. In separate assay plates, test compounds were added to the 384-well plate from a top concentration of 10 μM with 11 points, half log titration in duplicates. For each assay, 12.5 uL of cells suspended in assay media (RPMI 1640 no-phenol red medium+10% FBS) at cell densities indicated for each cell line in Table 8 below were dispensed using a multi-channel pipette to 384-well low volume white HTRF microplates containing a duplicate concentration range of test compounds and DMSO controls. The plates were kept at 37° C. with 5% CO2 for 6 hours and then incubated with either phospho EGFR or Total EGFR HTRF detection antibodies according to the cell line and EGFR mutant being assayed. Cells treated in the absence of the test compound were the negative control. Positive control was set by wells containing all reagents but no cells. FRET signal was acquired on EnVision™ Multilabel Reader (PerkinElmer, Santa Clara, CA, USA). Compound concentration that achieves 50% degradation and inhibition was reported as DC50 and IC50, respectively.

T1 sequence (P00533 25-1210 T790M/L858R): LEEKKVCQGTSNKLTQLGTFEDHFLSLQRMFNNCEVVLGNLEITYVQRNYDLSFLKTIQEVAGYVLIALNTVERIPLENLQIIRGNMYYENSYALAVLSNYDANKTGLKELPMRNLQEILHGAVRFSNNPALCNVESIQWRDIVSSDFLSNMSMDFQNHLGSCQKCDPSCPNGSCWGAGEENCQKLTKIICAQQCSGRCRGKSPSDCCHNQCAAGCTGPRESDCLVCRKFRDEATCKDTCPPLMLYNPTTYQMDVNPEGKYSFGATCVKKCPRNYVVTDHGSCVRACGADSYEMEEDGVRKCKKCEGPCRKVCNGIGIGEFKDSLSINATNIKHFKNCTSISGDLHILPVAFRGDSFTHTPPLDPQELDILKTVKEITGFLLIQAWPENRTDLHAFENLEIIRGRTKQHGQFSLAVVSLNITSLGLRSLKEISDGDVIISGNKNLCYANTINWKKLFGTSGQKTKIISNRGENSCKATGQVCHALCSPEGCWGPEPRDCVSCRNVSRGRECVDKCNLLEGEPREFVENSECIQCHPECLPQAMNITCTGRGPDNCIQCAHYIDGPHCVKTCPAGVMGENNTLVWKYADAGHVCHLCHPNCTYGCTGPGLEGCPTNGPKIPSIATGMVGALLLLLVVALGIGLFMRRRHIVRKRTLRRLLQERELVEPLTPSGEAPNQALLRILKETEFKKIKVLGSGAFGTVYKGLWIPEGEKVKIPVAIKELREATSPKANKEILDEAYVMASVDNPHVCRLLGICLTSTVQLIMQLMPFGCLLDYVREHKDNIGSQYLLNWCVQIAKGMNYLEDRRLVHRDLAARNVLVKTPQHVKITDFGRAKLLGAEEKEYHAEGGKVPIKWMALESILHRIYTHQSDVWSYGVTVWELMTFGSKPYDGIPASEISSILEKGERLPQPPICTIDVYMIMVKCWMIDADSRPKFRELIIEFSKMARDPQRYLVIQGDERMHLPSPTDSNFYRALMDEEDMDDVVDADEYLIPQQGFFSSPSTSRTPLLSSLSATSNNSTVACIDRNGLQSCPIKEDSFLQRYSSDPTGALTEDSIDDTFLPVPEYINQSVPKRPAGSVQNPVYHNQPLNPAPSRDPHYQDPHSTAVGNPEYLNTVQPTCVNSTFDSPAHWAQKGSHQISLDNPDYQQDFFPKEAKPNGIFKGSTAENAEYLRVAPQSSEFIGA
Sequence of EGFR L858R (P00533 25-1210 L858R): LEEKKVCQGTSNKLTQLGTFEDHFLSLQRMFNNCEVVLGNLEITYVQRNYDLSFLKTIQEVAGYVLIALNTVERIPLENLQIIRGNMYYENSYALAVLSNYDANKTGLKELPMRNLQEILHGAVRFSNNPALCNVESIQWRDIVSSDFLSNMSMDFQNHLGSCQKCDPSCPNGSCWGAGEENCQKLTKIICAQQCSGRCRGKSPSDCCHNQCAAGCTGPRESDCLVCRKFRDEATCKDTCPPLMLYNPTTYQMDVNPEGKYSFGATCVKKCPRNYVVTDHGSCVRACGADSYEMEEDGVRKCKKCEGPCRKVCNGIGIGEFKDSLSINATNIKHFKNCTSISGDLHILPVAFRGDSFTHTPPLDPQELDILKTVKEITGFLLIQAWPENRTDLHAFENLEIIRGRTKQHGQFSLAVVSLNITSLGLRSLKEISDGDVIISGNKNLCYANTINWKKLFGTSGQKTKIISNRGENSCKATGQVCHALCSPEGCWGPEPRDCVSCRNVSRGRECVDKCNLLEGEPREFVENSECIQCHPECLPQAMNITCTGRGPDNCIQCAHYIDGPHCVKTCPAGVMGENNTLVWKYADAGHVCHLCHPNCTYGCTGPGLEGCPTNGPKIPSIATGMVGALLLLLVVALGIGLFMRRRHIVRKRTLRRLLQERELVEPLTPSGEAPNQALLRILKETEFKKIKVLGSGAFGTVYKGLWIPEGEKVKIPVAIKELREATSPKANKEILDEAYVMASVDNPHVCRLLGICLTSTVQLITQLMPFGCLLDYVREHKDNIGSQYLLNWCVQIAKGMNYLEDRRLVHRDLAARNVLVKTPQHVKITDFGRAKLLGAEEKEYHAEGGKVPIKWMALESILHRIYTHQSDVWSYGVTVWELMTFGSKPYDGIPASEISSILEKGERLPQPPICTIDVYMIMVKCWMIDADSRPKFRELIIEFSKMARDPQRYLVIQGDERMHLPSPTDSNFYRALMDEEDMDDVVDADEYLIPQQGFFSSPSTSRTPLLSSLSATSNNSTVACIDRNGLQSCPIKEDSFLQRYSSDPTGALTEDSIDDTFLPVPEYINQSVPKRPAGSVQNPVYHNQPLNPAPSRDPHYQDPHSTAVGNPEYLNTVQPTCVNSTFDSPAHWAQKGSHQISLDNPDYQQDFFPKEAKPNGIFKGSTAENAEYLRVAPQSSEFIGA

SMILES	DC50 (EGFR L858R-T790M; Table 9A) [nM]	DC50 (EGFR L858R; Table 9A) [nM]	DC50 (EGFR L858R-T790M; Table 9B) [nM]	DC50 (EGFR L858R; Table 9B) [nM]
O=C1CC[C@H](Nc2ccc(C3CCN(CC(=O)N4CCN(c5ccc(-c6cc(F)c7cn(C(C(=O)Nc8nccs8)c8ncn9c8CCC9)nc7c6)cn5)CC4)CC3)c(F)c2)C(=O)N1 (stereo partly drawn) [Compound 68, 2-(6,7-dihydro-5H-pyrrolo[1,2-c]imidazol-1-yl)-2-(6-(6-(4-(2-(4-(4-(((S)-2,6-dioxopiperidin-3-yl)amino)-2-fluorophenyl)piperidin-1-yl)acetyl)piperazin-1-yl)pyridin-3-yl)-4-fluoro-2H-indazol-2-yl)-N-(thiazol-2-yl)acetamide]	< 50	< 50		
O=C1CC[C@H](Nc2ccc(C3CCN(CC(=O)N4CCC(c5cnn(-c6cc(F)c7c(c6)C(=O)N(C(C(=O)Nc6nccs6)c6ncn8c6CCC8)C7)c5)CC4)CC3)cc2)C(=O)N1 (stereo partly drawn) [Compound 29, 2-(6,7-dihydro-5H-pyrrolo[1,2-c]imidazol-1-yl)-2-[6-[4-[1-[2-[4-[4-[[(3S)-2,6-dioxo-3-piperidyl]amino]phenyl]-1-piperidyl]acetyl]-4-piperidyl]pyrazol-1-yl]-4-fluoro-1-oxo-isoindolin-2-yl]-N-thiazol-2-yl-acetamide]	< 50	< 50		
O=C1CC[C@H](Nc2ccc(C3CCN(CC(=O)N4CCC(Cc5ccc(-c6cc(F)c7c(c6)C(=O)N(C(C(=O)Nc6nccs6)c6ncn8c6CCC8)C7)cc5)CC4)CC3)c(F)c2)C(=O)N1 (stereo partly drawn) [Compound 60, 2-(6,7-dihydro-5H-pyrrolo[1,2-c]imidazol-1-yl)-2-[6-[4-[[1-[2-[4-[4-[[(3S)-2,6-dioxo-3-piperidyl]amino]-2-fluoro-phenyl]-1-piperidyl]acetyl]-4-piperidyl]methyl]phenyl]-4-fluoro-1-oxo-isoindolin-2-yl]-N-thiazol-2-yl-acetamide]	50 to 150	< 50		
O=C1CC[C@H](Nc2ccc(C3CCN(CC(=O)N4CCCN(c5ccc(-c6cc(F)c7c(c6)C(=O)N(C(C(=O)Nc6nccs6)c6ncn8c6CCC8)C7)cc5)CC4)CC3)c(F)c2)C(=O)N1 (stereo partly drawn) [Compound 84, 2-(6,7-dihydro-5H-pyrrolo[1,2-c]imidazol-1-yl)-2-(6-(4-(4-(2-(4-(4-(((S)-2,6-dioxopiperidin-3-yl)amino)-2-fluorophenyl)piperidin-1-yl)acetyl)-1,4-diazepan-1-yl)phenyl)-4-fluoro-1-oxoisoindolin-2-yl)-N-(thiazol-2-yl)acetamide]			50 to 150	50 to 150
O=C1CC[C@H](Nc2ccc(C3CCN(CC(=O)N4CCN(c5ccc(-c6cc(F)c7c(c6)C(=O)N(C(C(=O)Nc6nccs6)c6ncn8c6CCC8)C7)cn5)CC4)CC3)c(F)c2)C(=O)N1 (some centres unmarked) [Compound 27]	< 50	< 50		
Cn1nc(N2CCC(=O)NC2=O)c2ccc(C3CCN(C(=O)CN4CCC(c5ccc(-c6cc(F)c7c(c6)C(=O)N(C(C(=O)Nc6nccs6)c6ncn8c6CCC8)C7)cc5)CC4)CC3)cc21 (centres unmarked) [Compound 85, 2-(6,7-dihydro-5H-pyrrolo[1,2-c]imidazol-1-yl)-2-[6-[4-[1-[2-[4-[3-(2,4-dioxohexahydropyrimidin-1-yl)-1-methyl-indazol-6-yl]-1-piperidyl]-2-oxo-ethyl]-4-piperidyl]phenyl]-4-fluoro-1-oxo-isoindolin-2-yl]-N-thiazol-2-yl-acetamide]			50 to 150	< 50
O=C1CCC(Nc2ccc(C3CCN(CC(=O)N4CCN(c5ccc(-c6cc(F)c7cn(C(C(=O)Nc8nccs8)c8ncn9c8CCC9)nc7c6)cn5)CC4)CC3)nc2)C(=O)N1 (centres unmarked) [Compound 66, 2-(6,7-dihydro-5H-pyrrolo[1,2-c]imidazol-1-yl)-2-[6-[6-[4-[2-[4-[5-[(2,6-dioxo-3-piperidyl)amino]-2-pyridyl]-1-piperidyl]acetyl]piperazin-1-yl]-3-pyridyl]-4-fluoro-indazol-2-yl]-N-thiazol-2-yl-acetamide]	< 50	< 50		
Cn1nc(N2CCC(=O)NC2=O)c2ccc(C3CCN(CC(=O)N4CCN(c5ccc(-c6cc(F)c7cn(C(C(=O)Nc8nccs8)c8ncn9c8CCC9)nc7c6)cn5)CC4)CC3)cc21 (centres unmarked) [Compound 67, 2-(6,7-dihydro-5H-pyrrolo[1,2-c]imidazol-1-yl)-2-[6-[6-[4-[2-[4-[3-(2,4-dioxohexahydropyrimidin-1-yl)-1-methyl-indazol-6-yl]-1-piperidyl]acetyl]piperazin-1-yl]-3-pyridyl]-4-fluoro-indazol-2-yl]-N-thiazol-2-yl-acetamide]	< 50	50 to 150		
O=C1CC[C@@H](Nc2ccc(C3CCN(C(=O)CCCN4CCN(c5ccc(-c6cc(F)c7c(c6)C(=O)N(C(C(=O)Nc6nccs6)c6ncn8c6CCC8)C7)cc5)CC4)CC3)cc2)C(=O)N1 (stereo in doubt) [Compound 176, 2-(6,7-dihydro-5H-pyrrolo[1,2-c]imidazol-1-yl)-2-(6-(4-(4-(4-(4-(4-((2,6-dioxopiperidin-3-yl)amino)phenyl)piperidin-1-yl)-4-oxobutyl)piperazin-1-yl)phenyl)-4-fluoro-1-oxoisoindolin-2-yl)-N-(thiazol-2-yl)acetamide]			< 50	< 50
O=C1CCC(Nc2ccc(C3CCN(C(=O)CN4CCN(c5ccc(-c6cc(F)c7c(c6)C(=O)N(C(C(=O)Nc6nccs6)c6ncn8c6CCC8)C7)cc5)CC4)CC3)cc2)C(=O)N1 (centres unmarked) [Compound 178, 2-(6,7-dihydro-5H-pyrrolo[1,2-c]imidazol-1-yl)-2-(6-(4-(4-(2-(4-(4-((2,6-dioxopiperidin-3-yl)amino)phenyl)piperidin-1-yl)-2-oxoethyl)piperazin-1-yl)phenyl)-4-fluoro-1-oxoisoindolin-2-yl)-N-(thiazol-2-yl)acetamide]			< 50	< 50
O=C1CC[C@H](Nc2ccc(C3CCN(CC(=O)N4CC5(C4)CN(c4ccc(-c6cc(F)c7c(c6)C(=O)N(C(C(=O)Nc6ccccn6)c6ncn8c6CCC8)C7)cc4)C5)CC3)c(F)c2)C(=O)N1 (stereo partly drawn) [Compound 53, 2-(6,7-dihydro-5H-pyrrolo[1,2-c]imidazol-1-yl)-2-[6-[4-[2-[2-[4-[4-[[(3S)-2,6-dioxo-3-piperidyl]amino]-2-fluoro-phenyl]-1-piperidyl]acetyl]-2,6-diazaspiro[3.3]heptan-6-yl]phenyl]-4-fluoro-1-oxo-isoindolin-2-yl]-N-(2-pyridyl)acetamide]	50 to 150	< 50		
O=C1CC[C@H](Nc2ccc(C3CCN(CC(=O)N4C[C@H]5C[C@@H]4CN5c4ccc(-c5cc(F)c6c(c5)C(=O)N(C(C(=O)Nc5nccs5)c5ncn7c5CCC7)C6)cc4)CC3)c(F)c2)C(=O)N1 (stereo partly drawn) [Compound 80, 2-(6,7-dihydro-5H-pyrrolo[1,2-c]imidazol-1-yl)-2-(6-(4-((1R,4R)-5-(2-(4-(4-(((S)-2,6-dioxopiperidin-3-yl)amino)-2-fluorophenyl)piperidin-1-yl)acetyl)-2,5-diazabicyclo[2.2.1]heptan-2-yl)phenyl)-4-fluoro-1-oxoisoindolin-2-yl)-N-(thiazol-2-yl)acetamide]			50 to 150	< 50
O=C1CCC(Nc2ccc(C3CCN(CC(=O)N4CCN(c5ccc(-c6cc(F)c7c(c6)C(=O)N(C(C(=O)Nc6nccs6)c6ncn8c6CCC8)C7)cc5)CC4)CC3)nc2)C(=O)N1 (centres unmarked) [Compound 179, 2-(6,7-dihydro-5H-pyrrolo[1,2-c]imidazol-1-yl)-2-[6-[4-[4-[2-[4-[5-[(2,6-dioxo-3-piperidyl)amino]-2-pyridyl]-1-piperidyl]acetyl]piperazin-1-yl]phenyl]-4-fluoro-1-oxo-isoindolin-2-yl]-N-thiazol-2-yl-acetamide]			< 50	< 50
